{"source": "patent US10059669B2", "about": "“2-amino-3,5-difluoro-3,6-dimethyl-6-phenyl-3,4,5,6-tetrahydropyridines as BACE1 inhibitors for treating alzheimer's disease” (H. Lundbeck A/S, priority 2014, dated 2018)", "tested_on": "Aβ40", "test": "Assessment of Aβ levels in rat brain and plasma following BACE1 inhibition (Aβ40 ELISA)", "assay_type": "in vivo", "settings": "180 minutes, vs vehicle", "procedure": "Assessment of Aβ Levels in Rat Brain and Plasma Following BACE1 Inhibition. Animals.\nAll rat care and experimental procedures were approved by Lundbeck Veterinary Staff, according to Danish legislature. The rats were maintained in a barrier facility with a 12/12-h light/dark cycle and ad libitum food and water access.\nYoung adult Male Sprague Dawley rats of approximately 250 g weight were purchased from Charles River and received 0-30 mg/kg of vehicle (10% HP betaCD+1M MeSO4, pH 2.5) or test compounds (dissolved in vehicle) only by oral gavage (p.o). The compounds are dosed at a volume of 5 ml/kg. Cohorts of 5-10 animals were established for each treatment condition.\nAt T=180 minutes after initial dosing the animals were stunned and decapitated with a guillotine. Trunk-blood was sampled in EDTA coated tubes after decapitation of the animal. The blood was centrifuged at 2200G at 4° C. for 15 minutes and the plasma was collected and frozen at −80° C. The blood was aliquoted for Aβ ELISA and DMPK analysis. Immediately following sacrifice, the brain was extracted and split into 2 halves. The right hemibrains were snap frozen on dry ice and stored at −80° C. The left half was dissected; with the front forebrain taken for Aβ ELISA and the remainder used for DMPK analysis. These samples were also snap frozen on dry ice and stored at −80° C. until use for analysis.\nThe cortex samples were thawed slightly on wet ice before they were homogenized with a small volume dispersing instrument (T10 basic ULTRA-TURRAX®) which was set at speed 5 for approximately 5-7 sec. The tissue was processed in a 10 times volume of the weight, for example 100 mg of tissue was homogenized in 1000 μL of Homogenization buffer. Homogenization buffer: 50 ml Milli Q water+50 nM NaCl+0.2% Diethylamin (DEA)+1 tablet of Complete Protease inhibitor cocktail+1 nM 4-(2-aminoethyl) benzenesulfonyl fluoride hydrochloride irreversible serine protease inhibitor (AEBSF).\nAfter homogenization 450 μL aliquots of the samples are collected into a 1.5 ml Eppendorf tube and placed on wet ice, 0.5% NP-40 (50 ul) was added to all samples and then they were incubated on ice for 30 min. After which all samples were sonicated using an Ultrasonic homogenizer with 20 kHz homogeneous sound (SONOPLUS HD2070, Bandelin Electronic) 10 pulse set at 12-13% power to extract all the Aβ species. The samples were then centrifuged (Ole Dich 157 MPRF Micro centrifuge) at 20000G for 20 minutes at 4° C. After centrifugation 285 μL of the supernatant was pipetted into 600 μL microtubes tubes and neutralized with 15 μL of 1M Tris-HCL buffer.\nWAKO 294-62501 Human/Rat Abeta amyloid (40) kit was used for all ELISA analyses. 30 μL plasma samples or 30 μL of the cortex supernatants generated as described above were placed in 600 μL microtubes tubes on wet ice. To this 30 μL of 8M Urea (AppliChem A1049, 9025) are added to generate a 2-fold dilution. Both plasma and cortex supernatants are incubated on ice for 30 min. Standard rows were prepared from the standard peptide stock provided in the kit and standard diluent containing 1.6M Urea (200 μL 8M Urea+800 μL of standard diluent) and 0.8M Urea (400 μL 8M Urea+3600 μL Standard diluent). A serial 2-fold dilution of A340 from […] to 0 μmol/L was prepared for the assay.\nAfter incubation with urea, all samples were further diluted by addition of 5 times standard diluent from the Kit. This was done by adding 240 μL Standard Diluent to 60 μL sample/urea mixture, which was then mixed well. 100 μL of each diluted sample was pipetted into designated wells of the ELISA plate in duplicates. The plate was then covered and incubated overnight at 4° C. The following day, the ELISA kit was brought to room temperature before use. The incubated plate was washed 5 times with the 20× washing solution diluted in Milli Q water. 100 μL HRP-conjugate was applied to each well, and the plate was covered and incubates at 4° C. for 1 hr. The wash was repeated again for 5 times. […]", "data": [{"smiles": "COc1ccc(C(=O)Nc2ccc(F)c([C@@]3(C)N=C(N)[C@@](C)(F)C[C@@H]3F)c2)nc1", "note": "[Compound 3, N-(3-((2R,3S,5S)-6-amino-3,5-difluoro-2,5-dimethyl-2,3,4,5-tetrahydropyridin-2-yl)-4-fluorophenyl)-5-methoxypicolinamide]", "values": [{"measurement": "Aβ40 reduction", "setting": "Brain Rat, 10 mg/kg p.o.", "value": 35, "unit": "%"}, {"measurement": "Aβ40 reduction", "setting": "Brain Rat, 30 mg/kg p.o.", "value": 61, "unit": "%"}, {"measurement": "Aβ40 reduction", "setting": "Plasma Rat, 10 mg/kg p.o.", "value": 24, "unit": "%"}, {"measurement": "Aβ40 reduction", "setting": "Plasma Rat, 30 mg/kg p.o.", "value": 53, "unit": "%"}]}, {"smiles": "[2H]C([2H])([2H])Oc1ccc(C(=O)Nc2ccc(F)c([C@@]3(C)N=C(N)[C@@](C)(F)C[C@@H]3F)c2)nc1", "note": "[Compound 19, N-(3-((2R,3S,5S)-6-amino-3,5-difluoro-2,5-dimethyl-2,3,4,5-tetrahydropyridin-2-yl)-4-fluorophenyl)-5-(methoxy-d3)picolinamide]", "values": [{"measurement": "Aβ40 reduction", "setting": "Brain Rat, 10 mg/kg p.o.", "value": 56, "unit": "%"}, {"measurement": "Aβ40 reduction", "setting": "Brain Rat, 30 mg/kg p.o.", "value": 66, "unit": "%"}, {"measurement": "Aβ40 reduction", "setting": "Plasma Rat, 10 mg/kg p.o.", "value": 49, "unit": "%"}, {"measurement": "Aβ40 reduction", "setting": "Plasma Rat, 30 mg/kg p.o.", "value": 53, "unit": "%"}]}, {"smiles": "[2H]C([2H])([2H])Oc1cnc(C(=O)Nc2ccc(F)c([C@@]3(C)N=C(N)[C@@](C)(F)C[C@@H]3F)c2)cn1", "note": "[Compound 20, N-(3-((2R,3S,5S)-6-amino-3,5-difluoro-2,5-dimethyl-2,3,4,5-tetrahydropyridin-2-yl)-4-fluorophenyl)-5-(methoxy-d3)pyrazine-2-carboxamide]", "values": [{"measurement": "Aβ40 reduction", "setting": "Brain Rat, 3 mg/kg p.o.", "value": 52, "unit": "%"}, {"measurement": "Aβ40 reduction", "setting": "Plasma Rat, 3 mg/kg p.o.", "value": 64, "unit": "%"}]}]}
